In patent US9872875B2, “Component and method for treating viral disease” (Institut Pasteur of Shanghai, Chinese Academy of Sciences, priority 2012, dated 2018):
Where a name gives a salt, the structure may show the parent alone. Read-outs that look alike come from different tables or passages of the source. Ends that are not written are not given here.

What was measured:
EV71 [1] = assay: Effects of other antagonists and agonists on EV71 (Table 9); format: cell-based, Enterovirus 71; parameters: key: “NO” indicates there is negative
P2X7 receptor = target: T1, P2X7 receptor (Homo sapiens, UniProt Q99572); settings: cited from earlier work
T1 sequence (Q99572 1-595): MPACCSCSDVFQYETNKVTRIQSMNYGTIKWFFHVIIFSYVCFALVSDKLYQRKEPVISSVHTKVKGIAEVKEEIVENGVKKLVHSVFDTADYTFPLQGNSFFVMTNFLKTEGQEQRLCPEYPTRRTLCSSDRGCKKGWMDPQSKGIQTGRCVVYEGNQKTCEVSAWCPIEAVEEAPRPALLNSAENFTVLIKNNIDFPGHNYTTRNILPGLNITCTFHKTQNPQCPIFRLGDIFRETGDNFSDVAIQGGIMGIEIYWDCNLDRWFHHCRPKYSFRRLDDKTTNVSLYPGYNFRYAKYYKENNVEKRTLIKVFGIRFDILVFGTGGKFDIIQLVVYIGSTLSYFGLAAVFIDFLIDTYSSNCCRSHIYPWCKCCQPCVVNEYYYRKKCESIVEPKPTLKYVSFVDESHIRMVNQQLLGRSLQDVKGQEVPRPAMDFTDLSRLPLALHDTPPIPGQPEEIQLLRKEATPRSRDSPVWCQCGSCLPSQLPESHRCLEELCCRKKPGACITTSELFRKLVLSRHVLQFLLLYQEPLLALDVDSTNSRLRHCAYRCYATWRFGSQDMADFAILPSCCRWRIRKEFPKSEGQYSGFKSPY

P2X1 receptor = target: T2, P2X1 receptor (Homo sapiens, UniProt P51575); settings: cited from earlier work
T2 sequence (P51575 1-399): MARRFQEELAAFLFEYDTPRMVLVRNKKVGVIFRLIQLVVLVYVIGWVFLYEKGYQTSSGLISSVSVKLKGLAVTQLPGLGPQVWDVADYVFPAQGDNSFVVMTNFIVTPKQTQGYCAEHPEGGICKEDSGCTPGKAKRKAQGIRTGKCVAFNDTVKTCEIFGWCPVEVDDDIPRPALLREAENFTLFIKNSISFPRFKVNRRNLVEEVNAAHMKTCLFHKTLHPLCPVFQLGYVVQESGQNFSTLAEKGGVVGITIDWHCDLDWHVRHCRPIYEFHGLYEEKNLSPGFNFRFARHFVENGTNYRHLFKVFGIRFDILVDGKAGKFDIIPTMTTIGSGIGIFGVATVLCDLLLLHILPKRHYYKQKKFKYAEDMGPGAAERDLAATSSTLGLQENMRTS

P2X2 receptor = target: T3, P2X2 receptor (Homo sapiens, UniProt Q9UBL9); settings: cited from earlier work
T3 sequence (Q9UBL9 1-471): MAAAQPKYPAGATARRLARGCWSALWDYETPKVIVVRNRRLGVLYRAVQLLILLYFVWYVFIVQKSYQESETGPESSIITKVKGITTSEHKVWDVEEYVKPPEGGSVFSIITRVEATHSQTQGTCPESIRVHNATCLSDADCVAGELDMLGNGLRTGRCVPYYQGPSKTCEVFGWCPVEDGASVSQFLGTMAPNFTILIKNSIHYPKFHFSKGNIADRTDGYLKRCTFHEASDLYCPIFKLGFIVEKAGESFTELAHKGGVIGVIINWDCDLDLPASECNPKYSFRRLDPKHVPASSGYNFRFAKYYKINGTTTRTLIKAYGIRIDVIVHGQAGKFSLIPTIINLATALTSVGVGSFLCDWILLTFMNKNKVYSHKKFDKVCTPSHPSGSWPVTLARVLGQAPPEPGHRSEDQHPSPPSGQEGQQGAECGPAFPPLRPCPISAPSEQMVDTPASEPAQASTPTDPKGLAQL

EV71 [2] = assay: Inhibition of EV71 replication in RD cells at 0.1, 1, 10 and 100 μM (CPE, crystal violet); format: cell-based, Enterovirus 71; settings: for Inhibition of EV71 replication: Table 8, antagonists
Description: Inhibitory effect of each P2X receptor antagonists and agonists on EV71 replication was measured at 0.1, 1, 10, and 100 μM. Specific procedures refer to “1” of Example 1. after infection, however, cells need to be incubated for 3˜4 days, stained with crystal violet, and observed under optical microscope to determine whether or not CPE (cytopathic effect) was present. In addition, the effect of compounds at each concentration on cytotoxicity to RD cells was determined. After culturing RD cells in various concentrations of compounds for 3˜4 days, stained with crystal violet, and observed under optical microscope to observe whether or not cell layer was damaged. Compounds capable of protecting cells from infection without damage of healthy cell layer can inhibit EV71 replication in RD cells.

P2X3 receptor = target: T4, P2X3 receptor (Homo sapiens, UniProt P56373); settings: cited from earlier work
T4 sequence (P56373 1-397): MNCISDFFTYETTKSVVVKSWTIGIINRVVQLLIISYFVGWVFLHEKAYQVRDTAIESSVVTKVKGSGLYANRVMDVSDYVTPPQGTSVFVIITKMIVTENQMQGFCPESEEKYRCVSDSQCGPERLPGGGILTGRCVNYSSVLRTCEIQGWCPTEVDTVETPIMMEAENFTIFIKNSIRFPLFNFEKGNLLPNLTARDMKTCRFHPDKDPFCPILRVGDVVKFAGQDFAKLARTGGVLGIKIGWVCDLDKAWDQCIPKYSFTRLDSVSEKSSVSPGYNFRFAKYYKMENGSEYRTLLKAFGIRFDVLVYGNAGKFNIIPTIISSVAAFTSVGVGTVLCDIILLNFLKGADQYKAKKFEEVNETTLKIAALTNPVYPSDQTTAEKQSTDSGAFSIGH

Nc1ncnc2c1ncn2[C@@H]1O[C@H](COP(=O)(O)O)C(O)C1OP(=O)(O)O (stereo partly drawn) [2′,5′-ADP]
EV71 Log10 reduction (EV71 [1]): NO

O=C1CSC(=O)N1C(CCc1ccncc1)COc1ccc(-c2cccc([N+](=O)[O-])c2)cc1 (stereo not drawn) [AZ 11645373]
P2X receptors 7 (P2X7 receptor; Table 9, antagonists): ✓ ✓ (✓ ✓ activating concentration 10 nM-300 nM)
EV71 Log10 reduction (EV71 [1]): NO

CN([C@@H](Cc1ccc(OS(=O)(=O)c2cccc3cnccc23)cc1)C(=O)N1CCN(c2ccccc2)CC1)S(=O)(=O)c1cccc2cnccc12 [KN-62]
P2X receptors 7 (P2X7 receptor; Table 9, antagonists): ✓ ✓ (✓ ✓ activating concentration 10 nM-300 nM)
EV71 Log10 reduction (EV71 [1]): NO

CCOc1ccc(Nc2ccc(/C(=C3C=C/C(=[N+](/CC)Cc4cccc(S(=O)(=O)[O-])c4)C=C/3C)c3ccc(N(CC)Cc4cccc(S(=O)(=O)[O-])c4)cc3C)cc2)cc1.[Na+] [BBG]
P2X receptors 1 (P2X1 receptor; Table 9, antagonists): ✓ (✓ activating concentration >300 nM)
P2X receptors 7 (P2X7 receptor; Table 9, antagonists): ✓ ✓ ✓ (✓ ✓ ✓ activating concentration <10 nM)
EV71 Log10 reduction (EV71 [1]): NO
P2X receptors 2 (P2X2 receptor; Table 9, antagonists): ✓ (✓ activating concentration >300 nM)

O=C(Nc1cccc(C(=O)Nc2ccc(S(=O)(=O)O)c3cc(S(=O)(=O)O)cc(S(=O)(=O)O)c23)c1)Nc1cccc(C(=O)Nc2ccc(S(=O)(=O)O)c3cc(S(=O)(=O)O)cc(S(=O)(=O)O)c23)c1 [NF023, 8,8′-[carbonylbis(imino-3,1-phenylenecarbonylimino)]bis-1,3,5-naphthalene-trisulphonic acid, hexasodium salt]
P2X receptors 1 (P2X1 receptor): ++ (key: −: no activity; +: inhibitory concentration >300 nM; ++: inhibitory concentration = 10~300 nM; +++: inhibitory concentration <10 nM)
P2X receptors 2 (P2X2 receptor; Table 8, antagonists): + (+: inhibitory concentration >300 nM)
inhibition of EV71 replication (statement in words) (EV71 [2]): can also inhibit EV71 replication
Inhibition of EV71 replication (EV71 [2]): + (+: inhibitory concentration >300 nM)
P2X receptors 3 (P2X3 receptor; Table 8, antagonists): + (+: inhibitory concentration >300 nM)

LVVYPWT [Spinorphin]
EV71 Log10 reduction (EV71 [1]): NO
P2X receptors 3 (P2X3 receptor; Table 9, antagonists): ✓ ✓ ✓ (✓ ✓ ✓ activating concentration <10 nM)

Clc1cccc(-c2nnnn2Cc2cccnc2)c1Cl [A 438079]
P2X receptors 7 (P2X7 receptor; Table 9, antagonists): ✓ ✓ (✓ ✓ activating concentration 10 nM-300 nM)
EV71 Log10 reduction (EV71 [1]): NO

Cc1nc(N=Nc2ccc(C(=O)O)cc2)c(COP(=O)(O)O)c(C=O)c1O [MRS 2159]
P2X receptors 1 (P2X1 receptor; Table 9, antagonists): ✓ ✓ (✓ ✓ activating concentration 10 nM-300 nM)
EV71 Log10 reduction (EV71 [1]): NO

Nc1ncnc2c1ncn2[C@@H](C=O)O[C@@H](C=O)COP(=O)(O)OP(=O)(O)OP(=O)(O)O [oATP]
P2X receptors 7 (P2X7 receptor; Table 9, antagonists): ✓ ✓ (✓ ✓ activating concentration 10 nM-300 nM)
EV71 Log10 reduction (EV71 [1]): NO

COc1cc(C(C)C)c(Oc2cnc(N)nc2N)cc1I [AF353]
EV71 Log10 reduction (EV71 [1]): NO

Cc1ccc(CN2CCNCC2)cc1NC(=O)CNc1ccc(F)c(F)c1 [GW 791343]
P2X receptors 7 (P2X7 receptor; Table 9, modulator, no key printed for this class): ✓ ✓
EV71 Log10 reduction (EV71 [1]): NO

O=C(Nc1cccc(C(=O)Nc2cc(C(=O)Nc3ccc(S(=O)(=O)O)c4cc(S(=O)(=O)O)cc(S(=O)(=O)O)c34)ccc2F)c1)Nc1cccc(C(=O)Nc2cc(C(=O)Nc3ccc(S(=O)(=O)O)c4cc(S(=O)(=O)O)cc(S(=O)(=O)O)c34)ccc2F)c1 [NF157, 8,8′-[Carbonylbis[imino-3,1-phenylenecarbonylimino(4-fluoro-3,1-phenylene)carbonylimino]]]
inhibition of EV71 replication (statement in words) (EV71 [2]): can also inhibit EV71 replication

Cc1cc(-c2ccc(N=Nc3ccc4c(S(=O)(=O)[O-])cc(S(=O)(=O)[O-])c(N)c4c3O)c(C)c2)ccc1N=Nc1ccc2c(S(=O)(=O)[O-])cc(S(=O)(=O)[O-])c(N)c2c1O.[Na+].[Na+].[Na+].[Na+] [Evans Blue]
inhibition of EV71 replication (statement in words) (EV71 [2]): can also inhibit EV71 replication

COc1ccc(CC(=O)NC(N=C(NC#N)Nc2cccc3ncccc23)C(C)(C)C)cc1OC (stereo not drawn) [A 740003]
P2X receptors 7 (P2X7 receptor; Table 9, antagonists): ✓ ✓ (✓ ✓ activating concentration 10 nM-300 nM)
EV71 Log10 reduction (EV71 [1]): NO

Cc1nc(N=Nc2cc(S(=O)(=O)[O-])c3cc([N+](=O)[O-])cc(S(=O)(=O)[O-])c3c2)c(COP(=O)([O-])[O-])c(C=O)c1O.[Na+].[Na+].[Na+].[Na+] [PPNDS, Pyridoxal-5′-phosphate-6-(2′-naphthylazo-6′-nitro-4′,8′-disulfonate) tetrasodium salt]
P2X receptors 1 (P2X1 receptor; Table 8, antagonists): ++ (++: inhibitory concentration = 10~300 nM)
inhibition of EV71 replication (statement in words) (EV71 [2]): can also inhibit EV71 replication
Inhibition of EV71 replication (EV71 [2]): ++ (++: inhibitory concentration = 10~300 nM)

O=C(CC12CC3CC(CC(C3)C1)C2)Nc1cccc2nc(NCCNCCO)ccc12 [AZ 10606120]
EV71 Log10 reduction (EV71 [1]): NO

Cc1nc(N=Nc2cc(S(=O)(=O)O)ccc2S(=O)(=O)O)c(COP(=O)(O)O)c(C=O)c1O [iso-PPADS, pyridoxal-phosphate-6-azophenyl-2′,5′-disulphonic acid]
P2X receptors 1 (P2X1 receptor; Table 8, antagonists): ++ (++: inhibitory concentration = 10~300 nM)
P2X receptors 2 (P2X2 receptor; Table 8, antagonists): ++ (++: inhibitory concentration = 10~300 nM)
inhibition of EV71 replication (statement in words) (EV71 [2]): can also inhibit EV71 replication
Inhibition of EV71 replication (EV71 [2]): + (+: inhibitory concentration >300 nM)
P2X receptors 3 (P2X3 receptor; Table 8, antagonists): ++ (++: inhibitory concentration = 10~300 nM)

O=C(Nc1cc(C(=O)Nc2ccc(S(=O)(=O)[O-])cc2)cc(C(=O)Nc2ccc(S(=O)(=O)[O-])cc2)c1)Nc1cc(C(=O)Nc2ccc(S(=O)(=O)[O-])cc2)cc(C(=O)Nc2ccc(S(=O)(=O)[O-])cc2)c1.[Na+].[Na+].[Na+].[Na+] [NF 110]
P2X receptors 1 (P2X1 receptor; Table 9, antagonists): ✓ ✓ (✓ ✓ activating concentration 10 nM-300 nM)
EV71 Log10 reduction (EV71 [1]): NO
P2X receptors 2 (P2X2 receptor; Table 9, antagonists): ✓ (✓ activating concentration >300 nM)
P2X receptors 3 (P2X3 receptor; Table 9, antagonists): ✓ ✓ (✓ ✓ activating concentration 10 nM-300 nM)

O=C1CN=C(c2cccc(Br)c2)c2oc3ccccc3c2N1 [5-BDBD]
EV71 Log10 reduction (EV71 [1]): NO

Clc1cccc(-n2nnnc2NCc2ccccc2Oc2ccccn2)c1Cl [A 839977]
P2X receptors 7 (P2X7 receptor; Table 9, antagonists): ✓ ✓ (✓ ✓ activating concentration 10 nM-300 nM)
EV71 Log10 reduction (EV71 [1]): NO

O=C(O)c1cc(C(=O)O)c(C(=O)N(Cc2cccc(Oc3ccccc3)c2)[C@H]2CCCc3ccccc32)cc1C(=O)O [A-317491]
EV71 Log10 reduction (EV71 [1]): NO

O=C(N[C@H](Cc1cscn1)C(=O)N[C@@H](CC1CCCCC1)[C@@H](O)[C@@H](O)C1CC1)c1nc2ccccc2[nH]1 [Ro 0437626]
P2X receptors 1 (P2X1 receptor; Table 9, antagonists): ✓ (✓ activating concentration >300 nM)
EV71 Log10 reduction (EV71 [1]): NO
